The text below walks through data of paper PMC1192819, “Molecular cloning and characterization of a nuclear androgen receptor activated by 11-ketotestosterone” (Reproductive biology and endocrinology : RB&E, 2005).

In experiment [1] the target is T1, stickleback ARβ2 (reticulocyte lysate) (Gasterosteus aculeatus, UniProt Q801Z2).
T1 sequence (Q801Z2 1-735): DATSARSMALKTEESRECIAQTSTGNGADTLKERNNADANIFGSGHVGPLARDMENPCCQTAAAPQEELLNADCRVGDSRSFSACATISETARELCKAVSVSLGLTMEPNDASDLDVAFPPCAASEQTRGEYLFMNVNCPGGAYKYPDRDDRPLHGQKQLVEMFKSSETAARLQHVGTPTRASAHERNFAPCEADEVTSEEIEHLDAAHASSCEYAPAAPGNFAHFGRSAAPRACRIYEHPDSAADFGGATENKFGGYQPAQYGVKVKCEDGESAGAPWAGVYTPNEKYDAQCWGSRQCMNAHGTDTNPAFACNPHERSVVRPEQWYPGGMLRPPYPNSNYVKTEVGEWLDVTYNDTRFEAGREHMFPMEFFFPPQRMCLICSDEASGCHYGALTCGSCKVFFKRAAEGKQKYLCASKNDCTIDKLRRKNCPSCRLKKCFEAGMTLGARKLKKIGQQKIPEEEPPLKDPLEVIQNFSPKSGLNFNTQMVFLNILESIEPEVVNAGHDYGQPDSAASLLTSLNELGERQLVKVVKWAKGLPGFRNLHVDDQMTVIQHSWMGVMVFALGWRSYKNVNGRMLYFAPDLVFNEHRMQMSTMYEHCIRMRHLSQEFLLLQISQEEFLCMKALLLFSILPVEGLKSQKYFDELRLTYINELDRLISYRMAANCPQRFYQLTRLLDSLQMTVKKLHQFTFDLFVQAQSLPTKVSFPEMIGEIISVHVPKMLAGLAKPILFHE
Briefly: Ligand competition assay with 1 nM [3H]-DHT, ARβ2 containing reticulocyte extract. The format is binding, three-spined stickleback (Gasterosteus aculeatus). The conditions noted are these: read-out: EC50 (competition for [3H]-DHT binding). How it is done:
The excised AR pBK CMV clones were digested with XbaI and EcoRI and the inserts were gel purified prior to ligation into the pCMV-TNT vector (Promega) between XbaI and EcoRI. […] AR was expressed by introducing the pCMV-TNT into the TNT coupled reticulocyte lysate system (Promega) according to the manufacturer's instructions. The size of the expressed products was determined by addition of S^35-methionin to the reticulocyte lysate system. The obtained protein suspension was analyzed on a denaturing 8% SDS PAGE and the sizes were determined using prestained SDS-PAGE broad range protein molecular weight standard (Bio-Rad) and a control luciferase protein of 62 kDa included in the reticulocyte lysate system (Promega). For use in binding assays AR was expressed in the absence of radioactive S^35-methionein and stored at 4°C until further used in recombinant binding assay experiments.
(§1) The steroid specificity of receptor binding was examined using a competitive binding assay. […] Following incubation, the reaction was terminated by addition of DCC and centrifugation and the specific binding in each tube was determined as described above.

In experiment [2] the target is T2, AR in stickleback kidney cytosolic extracts (Gasterosteus aculeatus, UniProt Q801Z1).
T2 sequence (Q801Z1 1-682): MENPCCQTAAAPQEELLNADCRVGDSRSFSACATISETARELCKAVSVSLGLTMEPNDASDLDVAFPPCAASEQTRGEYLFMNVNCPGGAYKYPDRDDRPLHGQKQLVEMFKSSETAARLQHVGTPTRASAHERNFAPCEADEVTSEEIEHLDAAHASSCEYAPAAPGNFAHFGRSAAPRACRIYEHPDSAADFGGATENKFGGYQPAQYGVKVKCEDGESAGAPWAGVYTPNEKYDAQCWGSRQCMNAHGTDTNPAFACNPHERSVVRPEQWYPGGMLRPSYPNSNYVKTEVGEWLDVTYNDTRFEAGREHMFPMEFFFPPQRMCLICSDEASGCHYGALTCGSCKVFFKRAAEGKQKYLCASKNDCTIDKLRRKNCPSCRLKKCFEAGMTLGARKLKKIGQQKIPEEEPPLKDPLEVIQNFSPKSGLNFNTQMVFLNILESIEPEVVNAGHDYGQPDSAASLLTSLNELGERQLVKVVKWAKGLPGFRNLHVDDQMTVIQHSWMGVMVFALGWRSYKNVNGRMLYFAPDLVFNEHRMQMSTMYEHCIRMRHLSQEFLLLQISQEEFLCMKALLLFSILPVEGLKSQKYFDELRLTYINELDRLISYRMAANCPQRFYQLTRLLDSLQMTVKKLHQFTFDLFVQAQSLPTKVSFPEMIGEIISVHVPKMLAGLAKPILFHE
Briefly: Ligand competition assay with 1 nM [3H]-DHT, kidney cytosolic extracts. The format is binding, three-spined stickleback (Gasterosteus aculeatus). The settings on record: overnight 4°C, read-out: EC50 (competition for [3H]-DHT binding). How it is done:
as §1

In a further experiment the target is T3, human AR (Homo sapiens, UniProt P10275).
T3 construct: expressed in transfected cells; host or cells: ZFL (zebrafish liver) cells
T3 sequence (P10275 1-920): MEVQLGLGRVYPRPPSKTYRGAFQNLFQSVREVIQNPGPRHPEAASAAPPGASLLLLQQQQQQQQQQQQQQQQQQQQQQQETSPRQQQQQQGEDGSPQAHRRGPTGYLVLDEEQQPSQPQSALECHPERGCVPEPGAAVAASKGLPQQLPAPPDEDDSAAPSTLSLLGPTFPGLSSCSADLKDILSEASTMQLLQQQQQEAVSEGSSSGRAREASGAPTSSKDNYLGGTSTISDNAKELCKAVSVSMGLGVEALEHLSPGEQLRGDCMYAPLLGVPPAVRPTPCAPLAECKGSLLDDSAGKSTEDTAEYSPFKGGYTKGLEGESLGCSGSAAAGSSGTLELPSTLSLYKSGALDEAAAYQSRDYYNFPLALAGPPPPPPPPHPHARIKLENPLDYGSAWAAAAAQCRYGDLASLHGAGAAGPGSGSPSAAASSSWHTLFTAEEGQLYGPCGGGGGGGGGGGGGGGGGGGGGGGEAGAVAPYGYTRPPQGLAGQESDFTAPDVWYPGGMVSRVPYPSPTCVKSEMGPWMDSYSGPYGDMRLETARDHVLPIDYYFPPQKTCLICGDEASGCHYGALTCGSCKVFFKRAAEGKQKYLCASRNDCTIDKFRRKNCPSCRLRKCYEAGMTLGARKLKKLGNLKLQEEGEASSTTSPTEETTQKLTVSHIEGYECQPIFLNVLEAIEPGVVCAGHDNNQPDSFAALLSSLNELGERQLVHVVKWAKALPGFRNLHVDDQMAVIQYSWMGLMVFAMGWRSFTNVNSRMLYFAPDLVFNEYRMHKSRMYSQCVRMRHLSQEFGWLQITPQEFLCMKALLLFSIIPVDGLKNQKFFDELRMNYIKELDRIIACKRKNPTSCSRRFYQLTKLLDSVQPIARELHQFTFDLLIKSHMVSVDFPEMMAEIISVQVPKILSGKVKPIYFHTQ
Briefly: ARE-luciferase trans-activation assay, human AR in transfected ZFL cells. It is filed as cell-based. The settings on record: 10^-8 M of each steroid.

A further experiment relates to rainbow trout ARα. The settings on record: COS-1 cell line; read-out: IC50 (ligand binding); cited from earlier work.

Protocol for human AR: Two liver epithelial cell lines were used to test receptor activity. HepG2 cells (ATCC, Manassas, VA) were maintained in DMEM supplemented with 10% FCS and non-essential amino acids. ZFL cells (ATCC) were maintained in 50% L-15 Leibovitz, 15% H-12 Ham and 35% DMEM supplemented with 10% FCS (Gibco, Paisley, Scotland, UK) and 50 ng ml-1 EGF (Sigma). Cells were cultured at 37°C (HepG2) or 28°C (ZFL) in 5% CO2. The transfection experiments were initiated by replacing the tissue culture medium with fresh phenol-free medium supplemented with charcoal stripped FCS and the cells were seeded on 24-well plates. Transfections were performed at 90–95% confluence using 1,5 μl Lipofectamine 2000 (Invitrogen, Carlsbad, CA, USA) and 0,6 μg DNA per well. […]
After 16 h the transfection medium was replaced with fresh phenol-free medium, supplemented with charcoal stripped FCS, containing different steroid hormones. The cells were exposed to the hormones for 40 h and luciferase levels were detected using the Dual Luciferase Assay kit (Promega) in a TD 20/20 Luminometer (Turner Designs, Sunnyvale, CA). […]

As to `C[C@]12CC(=O)[C@H]3[C@@H](CCC4=CC(=O)CC[C@@]43C)[C@@H]1CC[C@@H]2O` [KT, 11-ketotestosterone], the concentration for a half-maximal effect (EC50) was 2.18 ± 0.71 nM in experiment [1] and 42.8 ± 3.42 nM in experiment [2]. In addition, at human AR, the “activation of human AR compared among androgens” value is given as “equally activated”. The concentration for half-maximal inhibition (IC50) in the experiment on rainbow trout ARα was 8 nM.
